# Paper PMC7367873, “Dissecting the sequence determinants for dephosphorylation by the catalytic subunits of phosphatases PP1 and PP2A” (Nature Communications, 2020)
# System: GFP-14-3-3β
# Experiment: GFP-14-3-3β co-IP with LC-MS/MS, untreated GFP-14-3-3β versus GFP control (14-3-3 interactome)
# Format: binding, human
# Conditions: log2 difference; pairwise comparison untreated vs GFP, label-free quantification, 3 replicates each
substance,measurement,value
PP1c: recombinant catalytic subunit of PP1,"Difference (log2), untreated vs GFP",1.715
